How the values were obtained:
Format in all cases: in vivo
[1] = test system: apple capsid bug (Plesiocoris rugicollis); assay: Example 1B: apple trees against apple capsid bug; settings: 37 d after treatment, larvae on twigs, Deltamethrin (EC 025) 3.75, (I-4) (150 OD) 30 g a.s./ha/m crown level
Procedure: Apple trees cv. “Holsteiner Cox” which are approximately 14 years old are treated, in 3 replications, against the apple capsid bug (Plesiocoris rugicollis). Here, the active substance Example (I-4) (150 OD) is tested at the specified application rate against the commercial standard Deltamethrin liquid (EC 025) at the specified application rate. The application is carried out with a knapsack sprayer. Here, the treatment is effected with a water application rate of 500 l/ha/m crown level.
The test is evaluated 37 days after the treatment by scoring the destruction of the larvae on the twigs with the aid of the Abbott method.

Caliothrips phaseoli = assay: Example 3: courgettes against Caliothrips phaseoli; settings: 8 d after treatment, nymphs on 5 leaves, Endosulfan (350 EC) 525, (I-4) (240 SC + 0.1% rapeseed oil methyl ester) 72 g a.s./ha
Procedure: Plots approx. 22 m^2 in size which are planted with courgettes cv. “Italiana negra” are treated, in three replications, against Caliothrips phaseoli. The application is effected with a motor-driven knapsack sprayer. Here, the active substance Example (I-4) (240 SC), in a tank mix together with 0.1% a.s. rapeseed oil methyl ester (500 EW) and the commercial standard endosulfan (350 EC), is tested at the specified application rates. The water application rate is approx. 510 l/ha.
The test is evaluated 8 days after the treatment by scoring the destruction of the animals (nymphs) on 5 leaves.

[2] = test system: Frankliniella occidentalis; assay: Example 5: aubergines against Frankliniella occidentalis; settings: mixed populations on leaves
Procedure: Plots 6 m^2 in size which are planted with aubergines cv. “Soraya” are treated, in three replications, against Frankliniella occidentalis. The application is effected with a motor-operated knapsack sprayer. Here, the active substances Example (I-4) (240 SC) and Example (I-9) (240 SC), in a tank mix together with 0.1% a.s. rapeseed oil methyl ester (500 EW) and the commercial standard Spinosad (480 SC), are tested at the specified application rates. The water application rate is 1500 l/ha.
The test is evaluated 25, 32 and 39 days after the treatment by scoring the destruction rate of the mixed populations on the leaves.

Empoasca onukui = assay: Example 15: tea plants against Empoasca onukui; settings: larvae on shoots
Procedure: Plots approx. 4 m^2 in size which are planted with tea plants cv. “Yabukita” are treated, in three replications, against Empoasca onukui. The application is carried out with a knapsack sprayer which is operated with pressurized air. Here, the active substance Example (I-4) (150 OD) is tested against the commercial standard Admire (10 WP) at the specified application rates. The water application rate is 10 000 l/ha.
The test is evaluated 15 and 29 days after the treatment by scoring the destruction rate of the larvae in percent on the shoots.

Pegomya spp. = assay: Example 17: winter wheat against Pegomya spp.; settings: 3 days after the last of two treatments (interval 7 days), larvae, Thiacloprid (240 OD) 72, (I-4) (240 SC + 0.2% rapeseed oil methyl ester) 96 g a.s./ha
Procedure: Plots approx. 25 m^2 in size which are planted with winter wheat cv. “Capfern” are treated, in four replications, against Pegomya spp. The application is carried out with a knapsack sprayer which is operated with pressurized air. Here, the active substance Example (I-4) (240 SC), in a tank mix with 0.2% a.s. rapeseed oil methyl ester (500 EW) and the commercial standard Thiacloprid (240 OD), is tested at the specified application rates. Two applications are carried out at an interval of 7 days. The water application rate is 350 l/ha.
(§1) The test is evaluated 3 days after the last treatment by scoring the destruction rate of the larvae on the plants.

Lema melanopa = assay: Example 25: winter wheat against Lema melanopa; settings: 3 days after the last of two treatments (interval 7 days), larvae, Calypso (240 OD) 72, (I-4) (240 SC + 0.2% rapeseed oil methyl ester) 96 g a.s./ha
Procedure: Plots approx. 25 m^2 in size which are planted with winter wheat cv. “Capfem” are treated, in four replications, against Lema melanopa. The application is carried out with a knapsack sprayer which is operated with pressurized air. Here, the active substance Example (I-4) (240 SC), in a tank mix together with 0.2% a.s. rapeseed oil methyl ester (500 EW) and the commercial standard Calypso (240 OD), is applied at the specified application rates. Two applications are carried out at an interval of 7 days, with a water application rate of 350 l/ha.
as §1

Ceutorhynchus napi = assay: Example 26-A: oilseed rape against Ceutorhynchus napi; settings: 55 d after treatment, larvae, Deltamethrin (25 EC) 5, (I-4) (+ 0.2% rapeseed oil methyl ester) 72, Thiacloprid (OD 240) 72, Lambda-cyhalothrin 5 g a.s./ha
Procedure: Plots approx. 25 m^2 in size which are planted with oilseed rape cv. “Artus” are treated, in four replications, against Ceutorhynchus napi. The application is carried out with a motor-operated knapsack sprayer. Here, the active substance Example (I-4), in a tank mix with 0.2% a.s. rapeseed oil methyl ester (500 EW) and the commercial standards Deltamethrin (25 EC), lambda-cyhalothrin (S100) and Thiacloprid (OD 240), is tested at the specified application rates. The water application rate is 250 l/ha.
The test is evaluated 55 days after the treatment by scoring the destruction rate of the larvae on the plants.

[3] = test system: Anthonomus pomorum, the apple blossom weevil; assay: Example 26B: apple trees against apple blossom weevil; settings: 22 d after treatment, larvae on inflorescences, Thiacloprid (SC 480) 48 + Deltamethrin 3.75 tank mix, (I-4) (150 OD) 48 g a.s./ha/m crown level
Procedure: Apple trees cv. “Holsteiner Cox” in plots approx. 20 m^2 in size are treated, in 4 replications, against Anthonomus pomorum, the apple blossom weevil. Here, the active substance Example (I-4) (150 OD) at the specified application rate is tested against a tank mix of the commercial standards Thiacloprid (SC 480) and Deltamethrin-liquid in the specified application rates. The application is carried out with a knapsack sprayer. Here, the treatment is effected with a water application rate of 500 l/ha/m crown level.
The test is evaluated 22 days after the treatment by scoring the destruction of the larvae on the inflorescences with the aid of the Abbott method.

CCOC(=O)OC1=C(c2cc(C)ccc2C)C(=O)N[C@]12CC[C@@H](OC)CC2 [Example (I-4)]
Efficacy (%) Abbott 37 d [1]: 96%
Efficacy (% Abbott) 8 d (Caliothrips phaseoli): 71.3 % Abbott
Efficacy (% Abbott) 25 d ([2]; 25 d after treatment, Spinosad (480 SC) 0.012, (I-9) 0.0054, (I-4) 0.012 % a.s., 240 SC + 0.1% rapeseed oil methyl ester): 92.1 % Abbott
Efficacy (% Abbott) 32 d ([2]; 32 d after treatment, Spinosad 0.012, (I-9) 0.0054, (I-4) 0.012 % a.s.): 88.3 % Abbott
Efficacy (% Abbott) 39 d ([2]; 39 d after treatment, Spinosad 0.012, (I-9) 0.0054, (I-4) 0.012 % a.s.): 89.7 % Abbott
Efficacy (% Abbott) 15 d (Empoasca onukui; 15 d after treatment, Admire (10 WP) 0.005 % a.s., (I-4) (150 OD) 0.01 % a.s.): 73 % Abbott
Efficacy (% Abbott) 29 d (Empoasca onukui; 29 d after treatment, Admire 0.005 % a.s., (I-4) 0.01 % a.s.): 78.8 % Abbott
Efficacy (% Abbott) 10 d (Pegomya spp.): 100 % Abbott
Efficacy (% Abbott) 10 d (Lema melanopa): 82.1 % Abbott
Efficacy (% Abbott) 55 d (Ceutorhynchus napi): 74.3 % Abbott
Efficacy (%) Abbott 22 d [3]: 88%

Source: US20090298903A1, “USE OF TETRAMIC ACID DERIVATIVES FOR INSECT CONTROL” (priority 2006, published 2009)
